US11123279B2, “Cosmetic composition and the use thereof for regulating skin quality” (priority 2016, dated 2021)
In brackets after ≈: the same amount, converted by molar mass. Like-named read-outs stand apart in the source and are kept apart here. One block for each compound: values may come before it.

Experiments:
B16 melanocyte cells [1] = assay: B16 cell melanogenesis inhibition assay; format: cell-based
B16 melanocyte cells [2] = tested on: B16 melanocyte cells
Protocol: Cytotoxicity activities to determine cell viability were obtained as follows. B16 melanocyte cells were plated in a 24 well-plate one day before the actual assay. Fresh DMEM (with phenol red) containing 10% FBS was added to dilute the cells to an appropriate density, 0.025×10^6 cells for a 24 well-plate. 1 ml of the DMEM with 10% FBS was added to each well. […] The well-plate with treated cells were then left in the incubator at 37° C., 5% CO2 for approximately 16 hours overnight. The media was removed and 1 ml of PBS solution was added into each well to wash and remove the colour of the phenol red in the DMEM. Then, 1 ml of fresh PBS was added into each individual well. 15 μl of the prepared Resazurin stock solution was added (8 μg/ml) into each well containing the compounds. The Resazurin stock solution was prepared by adding 800 μg of Resazurin sodium salt in 10 ml of PBS (pH 7.4) to make a concentration of 80 μg/ml, which was further diluted by adding 0.1 ml of the 80 μg/ml solution to 0.9 ml of PBS to make 8 μg/ml of stock solution. The well-plates were incubated at 37° C. for 2 hours. The plate was immediately read, after 2 hours, using a BioTek Synergy HTX multi-mode reader at an emission and excitation wavelength of 600 nm and 528 nm respectively, with a gain of 35. The results were automatically recorded in an excel spreadsheet.

Pseudomonas aeruginosa = assay: Antimicrobial activity, resistance of cream to microbial contamination; format: cell-based; conditions: tested individually at 0.05%
[3] = tested on: arm skin of Southeast Asian women; conditions: in vivo
Source text: The cream base used for blending the active ingredients contained the ingredients as follows: Aqua, Butyrospermum parkii, caprylic/capric triglyceride, C12-15 alkyl benzoate, cetearyl isononanoate, cyclomethicone, butylene glycol, hydroxyethyl acrylate, sodium dimethyl taurate copolymer, Aloe barbadensis leaf juice.

[4] = Viscosity measurement of creams; format: physicochemical; conditions: 0.5 wt % in base cream of 25,000 mPa·s
Protocol: Rheological properties of the creams with different cosmetic compositions were evaluated based on viscosity measurements. The individually tested samples were dissolved in a base cream (control) with a viscosity of 25,000 mPa·s. The cream base used for blending the active ingredients contained the ingredients as follows: Aqua, Butyrospermum parkii, caprylic/capric triglyceride, C12-15 alkyl benzoate, cetearyl isononanoate, cyclomethicone, butylene glycol, hydroxyethyl acrylate, sodium dimethyl taurate copolymer, Aloe barbadensis leaf juice. The cream base was white in colour, with a pH ranges between 4.5 and 5.5.

[5] = tested on: arm skin of Southeast Asian women; assay: Subject self-assessment questionnaire and preference in the skin lightening study (Example 1); format: in vivo, human; conditions: by day 14 of the trial
Source text: Table V illustrates the ranking of the various compositions from best to worst based on user satisfaction measurements. The questionnaire was formulated to include the questions such as: 1) what were your first impressions after application of the various compositions? 2) How quickly do you expect to see a lightening effect? 3) Are you satisfied with the quality of skin lightening achieved? 4) How many days after the first application of the various compositions did you observe a lightening effect? 5) are you satisfied with the quality of skin lightening achieved? 6) How many days after the first application of the test product did you observe a lightening effect?

Indian and Chinese skins = assay: Skin tone (a*, b*) and general skin quality observation (Examples 5 and 6); format: in vivo, human; conditions: Chinese skin and especially Indian skin
Protocol: […]. The a* (rosy-red tone) and b* (yellow tone) components of the skin tone were monitored.
Over the 28-day period, the a* (rosy-red tone) component of Indian skin increased, and the b* (yellow tone) component of Indian and Chinese skins decreased. […] Before starting the study, all subjects' melanin index, L*a*b* and ITA value were measured at the tested site using Mexameter MX18 and Courage+Khazaka (CK) Colorimeter CL 400. Photos and instrument measurements were taken at the start of the testing (Day 0), during the testing (D2, D5, D7, D9, D12) and after the testing (D14, D21 and D28). […] Each subject applied 5 products on the left arm. Subjects wore an arm sleeve over part of the right arm for the occluded site, so as to provide 2 negative controls, one occluded from light and UV-radiation (right arm) and one covered under fabric (left arm) so as to understand the effect of melanogenesis even when no light is passing through. The tested areas were evaluated on their skin melanin index, L*a*b* and ITA after D2, D5, D7, D9, D12, D14, D21 and D28 of application using Mexameter MX 18 and CK Colorimeter CL400.
As part of the same experiment above, general skin quality effects were also observed.

[6] = Melanocyte, 72 h, B16 cultured melanocyte cells, 3 days incubation, melanin OD at 480 nm; read-out: IC50, melanogenesis inhibition
[7] = B16 cultured melanocyte cells, 3 days incubation, melanin OD at 480 nm
[8] = Melanocyte, 72 h; read-out: IC50, melanogenesis inhibition

- IC50 (B16 melanocyte cells [1]; [6]): 70 µg/mL
Compound: Nc1nc2c(ncn2[C@@H]2O[C@H](COP(=O)(O)O)[C@@H](O)[C@H]2O)c(=O)[nH]1 [Guanosine Monophosphate, Guanosine Mono- phosphate]

Compound: O=C1NS(=O)(=O)c2ccccc21 [Saccharin, 2H-1lamda 6,2-benzothiazol-1,1,3-trione]
- cytotoxic activities on B16 cells (B16 melanocyte cells [2]): no real cytotoxic activities

- IC50 (B16 melanocyte cells [1]; [6]): 51 µg/mL (≈ 359 µM)
Compound: O=c1cc(CO)occ1O [Kojic acid (Standard), Kojic acid, reference compound]

- IC50, melanogenesis inhibition (B16 melanocyte cells [1]; [7]): 262 µg/mL (≈ 1450 µM)
Compound: CC(=O)Oc1ccccc1C(=O)O [Acetylsalicylic Acid, Acetyl Salicylic Acid]

- IC50 (B16 melanocyte cells [1]; [6]): 37 µg/mL (≈ 205 µM)
Compound: Cn1cnc2c1c(=O)[nH]c(=O)n2C [Theobromine]

Compound: CC1=CC(=O)[N-]S(=O)(=O)O1.[K+] [Acesulphame K (ASK), Acesulphame K (Potassium Acesulphame)]
- IC50 (B16 melanocyte cells [1]; Melanocyte, 72 h, read-out: IC50, melanogenesis inhibition): 58 µg/mL

- IC50 (B16 melanocyte cells [1]; [6]): 65 µg/mL (≈ 515 µM)
Compound: Cc1occc(=O)c1O [Maltol, 3-hydroxy-2-methyl-4H-pyran-4-one]
- cytotoxic activities on B16 cells (B16 melanocyte cells [2]): no real cytotoxic activities
- inhibition of the growth of P. aeruginosa (Pseudomonas aeruginosa): completely inhibited
- cytotoxic activities on intact human skin [3]: no real cytotoxic activities

Compound: O=C1O[C@H]([C@@H](O)CO)C(O)=C1O[C@H]1O[C@H](CO)[C@@H](O)[C@H](O)[C@H]1O [ascorbic acid-2-glucoside (AA2G), ascorbic acid-2-glucoside]
- viscosity of the cream [4]: 26,000 mPa·s

- IC50 (B16 melanocyte cells [1]; [8]): 56 µg/mL (≈ 371 µM)
Compound: Nc1nc2[nH]cnc2c(=O)[nH]1 [Guanine]

Compound: NC(=O)c1cccnc1 [niacinamide]
- subjects who observed and reported lightening of their skin [5]: 82%
- effects on a* and b* skin tone compared with the maltol/saccharin cream (Indian and Chinese skins): diametrically opposite effects

- IC50 (B16 melanocyte cells [1]; [6]): 143 µg/mL (≈ 1280 µM)
Compound: O=c1cc[nH]c(=O)[nH]1 [Uracil]

- IC50 (B16 melanocyte cells [1]; [6]): 89 µg/mL (≈ 605 µM)
Compound: O=C1NC(=O)c2ccccc21 [Phthalimide]

- IC50 (B16 melanocyte cells [1]; [6]): 73 µg/mL (≈ 414 µM)
Compound: O=C1O[C@H]([C@H](O)CO)C(O)=C1O [Erythorbic Acid]

Compound: Dehydroacetic Acid [Dehydroacetic Acid (DHAA)]
- IC50, melanogenesis inhibition (B16 melanocyte cells [1]): 73 µg/mL

- IC50 (B16 melanocyte cells [1]; [6]): 70 µg/mL (≈ 514 µM)
Compound: O=c1[nH]cnc2[nH]cnc12 [Hypoxanthine]

- IC50, melanogenesis inhibition (B16 melanocyte cells [1]; [7]): 77 µg/mL (≈ 496 µM)
- IC50 (B16 melanocyte cells [1]; [6]): 59 to 262 µg/mL (≈ 380 to 1690 µM)
Compound: O=C(O)c1cc(O)[nH]c(=O)c1 [Citrazinic Acid, Citrazinic acid]

- IC50, melanogenesis inhibition (B16 melanocyte cells [1]; [7]): 59 µg/mL (≈ 421 µM)
- IC50 (B16 melanocyte cells [1]; [6]): 59 to 262 µg/mL (≈ 421 to 1870 µM)
Compound: CCc1occc(=O)c1O [Ethyl Maltol]
- concentrations resulting in cell toxicity (B16 melanocyte cells [2]; mouse): greater than 100 μM

Compound: O=c1[nH]c2ccccc2c(=O)o1 [Isatoic Anhydride]
- IC50 (B16 melanocyte cells [1]; [8]): 132 µg/mL (≈ 809 µM)
